Laboratory results as given in PubChem BioAssay AID2060500 (Molecular Pharmacology Branch, DTP, NCI, 2025).
pIC50: −log10 of the molar value.

Test system: 596521-263-R-J1-PDC complex spheroids, viability % of control
Test: Anticancer human tumor 596521-263-R-J1-PDC patient-derived soft tissue sarcoma cell line growth inhibition [GQUAD]
Conditions: for pIC50: curve of first compound; for viability, T/C: stronger effect = lower value; active = viability on the fitted dose curve at most 10% of control; inactive = the rest
How it was run: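 Viability of tumor cells grown as complex spheroids with endothelial and stromal cells, exposed to drug combinations. Top concentration at or near clinical Cmax (else 10 microM), diluted in half-log increments.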

[1] = second compound 0.0316 µM, first compound 0.0316 µM
[2] = second compound 0.0316 µM, first compound 0.1 µM
[3] = second compound 0.0316 µM, first compound 0.316 µM
[4] = second compound 0.0316 µM, first compound 1 µM
[5] = second compound 0.0316 µM, first compound 3.16 µM
[6] = second compound 0.0316 µM, first compound 10 µM
[7] = second compound 0.1 µM, first compound 0.0316 µM
[8] = second compound 0.1 µM, first compound 0.1 µM
[9] = second compound 0.1 µM, first compound 0.316 µM
[10] = second compound 0.1 µM, first compound 1 µM
[11] = second compound 0.1 µM, first compound 3.16 µM
[12] = second compound 0.1 µM, first compound 10 µM
[13] = second compound 0.316 µM, first compound 0.0316 µM
[14] = second compound 0.316 µM, first compound 0.1 µM
[15] = second compound 0.316 µM, first compound 0.316 µM
[16] = second compound 0.316 µM, first compound 1 µM
[17] = second compound 0.316 µM, first compound 3.16 µM
[18] = second compound 0.316 µM, first compound 10 µM
[19] = second compound 1 µM, first compound 0.0316 µM
[20] = second compound 1 µM, first compound 0.1 µM
[21] = second compound 1 µM, first compound 0.316 µM
[22] = second compound 1 µM, first compound 1 µM
[23] = second compound 1 µM, first compound 3.16 µM
[24] = second compound 1 µM, first compound 10 µM
[25] = second compound 3.16 µM, first compound 0.0316 µM
[26] = second compound 3.16 µM, first compound 0.1 µM
[27] = second compound 3.16 µM, first compound 0.316 µM
[28] = second compound 3.16 µM, first compound 1 µM
[29] = second compound 3.16 µM, first compound 3.16 µM
[30] = second compound 3.16 µM, first compound 10 µM
[31] = second compound 10 µM, first compound 0.0316 µM
[32] = second compound 10 µM, first compound 0.1 µM
[33] = second compound 10 µM, first compound 0.316 µM
[34] = second compound 10 µM, first compound 1 µM
[35] = second compound 10 µM, first compound 3.16 µM
[36] = second compound 10 µM, first compound 10 µM
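Note: spheroids exposed to drugs for 7 days before viability reading.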
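Throughout, for viability, T/C: 100% = DMSO vehicle control viability.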

COc1ncnc(C2CC2)c1-c1ncc2cnn(Cc3ccc(-c4nc(C(F)(F)F)cn4C(C)C)cc3)c2n1 + CN(C)c1ccc(Nc2c3ccc(NC(=O)CCN4CCCC4)cc3nc3cc(NC(=O)CCN4CCCC4)ccc23)cc1
inactive: viability, T/C [1] 94.8% | viability, T/C [2] 100% | viability, T/C [3] 92.2% | viability, T/C [4] 104% | viability, T/C [5] 90.9% | viability, T/C [6] 97.2% | viability, T/C [7] 103% | viability, T/C [8] 94.7% | viability, T/C [9] 98.4% | viability, T/C [10] 89.8% | viability, T/C [11] 98.6% | viability, T/C [12] 93.5% | viability, T/C [13] 103% | viability, T/C [14] 99.2% | viability, T/C [15] 101% | viability, T/C [16] 106% | viability, T/C [17] 104% | viability, T/C [18] 105% | viability, T/C [19] 95.4% | viability, T/C [20] 92.5% | viability, T/C [21] 93.5% | viability, T/C [22] 81.1% | viability, T/C [23] 108% | viability, T/C [24] 88.3% | viability, T/C [25] 89.9% | viability, T/C [26] 106% | viability, T/C [27] 87.9% | viability, T/C [28] 108% | viability, T/C [29] 86.6% | viability, T/C [30] 72.6% | viability, T/C [31] 63% | viability, T/C [32] 57.7% | viability, T/C [33] 63.8% | viability, T/C [34] 57% | viability, T/C [35] 52% | viability, T/C [36] 38.4%
< 5.00: pIC50 (second compound 0.0316 µM) | pIC50 (second compound 0.1 µM) | pIC50 (second compound 0.316 µM) | pIC50 (second compound 1 µM) | pIC50 (second compound 3.16 µM)
5.42: pIC50 (second compound 10 µM)

CC1COCCN1c1cc(-c2ccnn2C)c2ccnc(-c3ccn[nH]3)c2n1 (stereo not drawn) + Cc1[nH]c2ccc(F)cc2c1-c1nc2c3cccnc3c3ncccc3c2[nH]1
6.50: pIC50 (second compound 0.316 µM)
inactive: viability, T/C [1] 84.3% | viability, T/C [2] 61.8% | viability, T/C [3] 55.6% | viability, T/C [4] 40.1% | viability, T/C [5] 32.5% | viability, T/C [6] 26% | viability, T/C [7] 81.3% | viability, T/C [8] 69.5% | viability, T/C [9] 52% | viability, T/C [10] 41.8% | viability, T/C [11] 37.9% | viability, T/C [12] 23.2% | viability, T/C [13] 75.9% | viability, T/C [14] 57.2% | viability, T/C [15] 50% | viability, T/C [16] 43.2% | viability, T/C [17] 31.8% | viability, T/C [18] 25.3% | viability, T/C [19] 71% | viability, T/C [20] 62.5% | viability, T/C [21] 57.1% | viability, T/C [22] 43.5% | viability, T/C [23] 34.3% | viability, T/C [24] 26% | viability, T/C [25] 67.3% | viability, T/C [26] 62.4% | viability, T/C [27] 53.2% | viability, T/C [28] 47.8% | viability, T/C [29] 36.3% | viability, T/C [30] 26.1% | viability, T/C [31] 64.5% | viability, T/C [32] 57% | viability, T/C [33] 49.6% | viability, T/C [34] 40.9% | viability, T/C [35] 32.9% | viability, T/C [36] 25.4%
6.22: pIC50 (second compound 3.16 µM)
6.26: pIC50 (second compound 1 µM)
6.29: pIC50 (second compound 0.1 µM)
6.40: pIC50 (second compound 0.0316 µM)
6.54: pIC50 (second compound 10 µM)

CC1COCCN1c1cc(C2(O)CC3CCC(C2)O3)c2cnn(-c3ccn[nH]3)c2n1 (stereo not drawn) + Cc1[nH]c2ccc(F)cc2c1-c1nc2c3cccnc3c3ncccc3c2[nH]1
inactive: viability, T/C [1] 68.8% | viability, T/C [2] 56.8% | viability, T/C [3] 52.6% | viability, T/C [4] 32.8% | viability, T/C [5] 23% | viability, T/C [6] 12.4% | viability, T/C [7] 77.5% | viability, T/C [8] 60.1% | viability, T/C [9] 48.9% | viability, T/C [10] 35.1% | viability, T/C [11] 25.6% | viability, T/C [12] 14.6% | viability, T/C [13] 64.8% | viability, T/C [14] 54.1% | viability, T/C [15] 48.8% | viability, T/C [16] 34.2% | viability, T/C [17] 25.3% | viability, T/C [18] 13.1% | viability, T/C [19] 72.4% | viability, T/C [20] 62.7% | viability, T/C [21] 52% | viability, T/C [22] 33.8% | viability, T/C [23] 25.6% | viability, T/C [24] 16.1% | viability, T/C [25] 63.9% | viability, T/C [26] 59.4% | viability, T/C [27] 47% | viability, T/C [28] 32.2% | viability, T/C [29] 26% | viability, T/C [30] 14.9% | viability, T/C [31] 54.4% | viability, T/C [32] 55% | viability, T/C [33] 42.4% | viability, T/C [34] 27.6% | viability, T/C [35] 25.3% | viability, T/C [36] 14.2%
6.63: pIC50 (second compound 3.16 µM)
6.49: pIC50 (second compound 1 µM)
6.68: pIC50 (second compound 0.316 µM)
6.88: pIC50 (second compound 10 µM)
6.57: pIC50 (second compound 0.1 µM)
6.55: pIC50 (second compound 0.0316 µM)

CC1COCCN1c1cc(C2(S(C)(=N)=O)CC2)nc(-c2ccnc3[nH]ccc23)n1 (stereo not drawn) + Cc1[nH]c2ccc(F)cc2c1-c1nc2c3cccnc3c3ncccc3c2[nH]1
5.32: pIC50 (second compound 10 µM)
< 5.00: pIC50 (second compound 0.0316 µM) | pIC50 (second compound 1 µM)
5.08: pIC50 (second compound 0.1 µM)
5.22: pIC50 (second compound 3.16 µM)
5.12: pIC50 (second compound 0.316 µM)
inactive: viability, T/C [1] 94.5% | viability, T/C [2] 92.9% | viability, T/C [3] 92.1% | viability, T/C [4] 79.2% | viability, T/C [5] 64.5% | viability, T/C [6] 50.9% | viability, T/C [7] 104% | viability, T/C [8] 95.5% | viability, T/C [9] 90.8% | viability, T/C [10] 79.6% | viability, T/C [11] 63.1% | viability, T/C [12] 47.2% | viability, T/C [13] 100% | viability, T/C [14] 111% | viability, T/C [15] 98.5% | viability, T/C [16] 84.5% | viability, T/C [17] 62.6% | viability, T/C [18] 46.1% | viability, T/C [19] 94.5% | viability, T/C [20] 92.8% | viability, T/C [21] 85.5% | viability, T/C [22] 86.1% | viability, T/C [23] 67.9% | viability, T/C [24] 51.4% | viability, T/C [25] 80.3% | viability, T/C [26] 89% | viability, T/C [27] 87.2% | viability, T/C [28] 65.6% | viability, T/C [29] 62.6% | viability, T/C [30] 42.1% | viability, T/C [31] 80.5% | viability, T/C [32] 72.6% | viability, T/C [33] 81% | viability, T/C [34] 61.7% | viability, T/C [35] 55.3% | viability, T/C [36] 43.9%
